Assay results reported in patent US10098881B2, “Compounds” (AUTIFONY THERAPEUTICS LIMITED, priority 2011, dated 2018).

Legend:
Male CD-1 mice = test: Biological Example 2: psychostimulant (amphetamine)-induced hyperactivity in mice; details: for Locomotor activity (beam crosses): over 60 minutes, mean ± sem
[1] = molecular target: T1, human Kv3.2 channels (hKv3.2) (Homo sapiens, UniProt Q96PR1); test: Biological Example 1: hKv3.2 whole-cell currents, IonWorks Quattro planar array electrophysiology; type: cell-based; details: hKv3.2, -15 mV voltage step
T1 construct: expressed in transfected cells
T1 sequence (Q96PR1 1-638): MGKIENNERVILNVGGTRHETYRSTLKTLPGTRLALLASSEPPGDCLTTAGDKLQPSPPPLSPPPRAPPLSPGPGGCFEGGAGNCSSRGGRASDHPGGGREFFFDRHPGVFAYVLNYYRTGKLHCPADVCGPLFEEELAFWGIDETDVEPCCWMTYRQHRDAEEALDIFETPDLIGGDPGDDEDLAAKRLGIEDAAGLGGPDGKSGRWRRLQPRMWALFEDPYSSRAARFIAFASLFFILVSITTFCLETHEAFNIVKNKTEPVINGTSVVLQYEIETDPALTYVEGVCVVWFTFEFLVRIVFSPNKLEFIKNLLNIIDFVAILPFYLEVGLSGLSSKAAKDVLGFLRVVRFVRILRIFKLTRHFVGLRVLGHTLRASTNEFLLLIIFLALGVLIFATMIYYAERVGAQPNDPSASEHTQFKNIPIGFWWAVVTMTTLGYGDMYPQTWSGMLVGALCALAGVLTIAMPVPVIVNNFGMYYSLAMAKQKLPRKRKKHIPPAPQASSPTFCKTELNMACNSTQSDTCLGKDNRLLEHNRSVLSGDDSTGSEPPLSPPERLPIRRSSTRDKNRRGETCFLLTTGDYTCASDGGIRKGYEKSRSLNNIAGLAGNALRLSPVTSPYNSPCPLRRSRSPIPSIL
Description: The ability of the compounds of the invention to modulate the voltage-gated potassium channel subtypes Kv3.2 or Kv3.1 may be determined using the following assay. Analogous methods may be used to investigate the ability of the compounds of the invention to modulate other channel subtypes, including Kv3.3 and Kv3.4.
To assess compound effects on human Kv3.2 channels (hKv3.2), a stable cell line expressing hKv3.2 was created by transfecting Chinese Hamster Ovary (CHO)-K1 cells with a pClH5-hKv3.2 vector. Cells were cultured in DMEM/F12 medium supplemented by 10% Foetal Bovine Serum, lx non-essential amino acids (Invitrogen) and 500 ug/ml of Hygromycin-B (Invitrogen). Cells were grown and maintained at 37° C. in a humidified environment containing 5% CO2 in air.
The day of the experiment, cells were removed from the incubator and the culture medium removed. Cells were washed with 5 ml of Dulbecco's PBS (DPBS) calcium and magnesium free and detached by the addition of 3 ml Versene (Invitrogen, Italy) followed by a brief incubation at 37° C. for 5 minutes. The flask was tapped to dislodge cells and 10 ml of DPBS containing calcium and magnesium was added to prepare a cell suspension. The cell suspension was then placed into a 15 ml centrifuge tube and centrifuged for 2 min at 1200 rpm. After centrifugation, the supernatant was removed and the cell pellet re-suspended in 4 ml of DPBS containing calcium and magnesium using a 5 ml pipette to break up the pellet. Cell suspension volume was then corrected to give a cell concentration for the assay of approximately 3 million cells per ml.
Experiments were conducted at room temperature using IonWorks Quattro™ planar array electrophysiology technology (Molecular Devices Corp.) with PatchPlate™ PPC. Stimulation protocols and data acquisition were carried out using a microcomputer (Dell Pentium 4). Planar electrode hole resistances (Rp) were determined by applying a 10 mV voltage step across each well. These measurements were performed before cell addition. […] Following this, amphotericin-B solution was added to the intracellular face of the electrode to achieve intracellular access. Cells were held at −70 mV. Leak subtraction was conducted in all experiments by applying 50 ms hyperpolarizing (10 mV) prepulses to evoke leak currents followed by a 20 ms period at the holding potential before test pulses. From the holding potential of −70 mV, a first test pulse to −15 mV was applied for 100 ms and following a further 100 ms at −70 mV, a second pulse to 40 mV was applied for 50 ms. Cells were then maintained for a further 100 ms at −100 mV and then a voltage ramp from −100 mV to 40 mV was applied over 200 ms. Test pulses protocol may be performed in the absence (pre-read) and presence (post-read) of the test compound. Pre- and post-reads may be separated by the compound addition followed by a 3 minute incubation.
The intracellular solution contained the following (in mM): K-gluconate 100, KCl 54, MgCl2 3.2, HEPES 5, adjusted to pH 7.3 with KOH. Amphotericin-B solution was prepared as […] stock solution in DMSO and diluted to a final working concentration of 0.1 mg/ml in intracellular solution.
Compounds of the invention (or reference compounds such as N-cyclohexyl-N-[(7,8-dimethyl-2-oxo-1,2-dihydro-3-quinolinyl)methyl]-N′-phenylurea were dissolved in dimethylsulfoxide (DMSO) at a stock concentration of 10 mM. These solutions were further diluted with DMSO using a Biomek FX
Each dilution (1 μL) was transferred to another compound plate and external solution containing 0.05% pluronic acid (66 μL) was added. 3.5 μL from each plate containing a compound of the invention was added and incubated with the cells during the lonWorks Quattro™ experiment. The final assay dilution was 200 and the final compound concentrations were in the range 50 μM to 50 nM.

[2] = compound 1.6 μM (concentration giving ~0.3 nA current at end of pulse)
[3] = compound 0.8 μM (concentration giving ~0.3 nA current at end of pulse)
[4] = compound 0.4 μM (concentration giving ~0.3 nA current at end of pulse)
[5] = compound 3.1 μM (concentration giving ~0.3 nA current at end of pulse)

CC(N)Cc1ccccc1 (stereo not shown) [Amphetamine, amphetamine, reference compound]
Locomotor activity (beam crosses) (Male CD-1 mice; amphetamine 2.0 mg/kg i.p. alone): 16190 ± 2394 beam crosses
total locomotor activity (Male CD-1 mice; amphetamine alone, 2 mg/kg i.p.): large and significant increase

CN1CCN(C2=Nc3cc(Cl)ccc3Nc3ccccc32)CC1 [Clozapine, reference compound]
Locomotor activity (beam crosses) (Male CD-1 mice; AMPH 2 mg/kg i.p. + clozapine i.p. 30 min before (positive control), p<0.001 vs amphetamine alone): 1546 ± 420 beam crosses

CC[C@@]1(C)NC(=O)N(c2cnc(Oc3ccc(C)c4c3C3(CC3)CO4)nc2)C1=O [Example 1, (5R)-5-ethyl-5-methyl-3-[2-(7-methylspiro[2H-benzofuran-3,1′-cyclopropane]-4-yl)oxypyrimidin-5-yl]imidazolidine-2,4-dione]
Tauact mean [1, 2]: 21.3 ms

CC[C@@]1(C)NC(=O)N(c2cnc(Oc3ccc(C)c4c3C(C)(C)CO4)nc2)C1=O [Example 2, (5R)-5-ethyl-5-methyl-3-{2-[(3,3,7-trimethyl-2,3-dihydro-1-benzofuran-4-yl)oxy]-5-pyrimidinyl}-2,4-imidazolidinedione]
Tauact mean [1, 2]: 14.8 ms

CC[C@@]1(C)NC(=O)N(c2cnc(Oc3ccc(C)c4c3OC(F)(F)O4)nc2)C1=O [Example 3, (5R)-3-{2-[(2,2-difluoro-7-methyl-1,3-benzodioxol-4-yl)oxy]-5-pyrimidinyl}-5-ethyl-5-methyl-2,4-imidazolidinedione]
Tauact mean ([1]; compound 25.0 μM (concentration giving ~0.3 nA current at end of pulse)): 8.9 ms

CC[C@H]1NC(=O)N(c2cnc(Oc3ccc(C)c4c3C3(CC3)CO4)nc2)C1=O [Example 5, (5R)-5-ethyl-3-[2-(7-methylspiro[2H-benzofuran-3,1′-cyclopropane]-4-yl)oxypyrimidin-5-yl]imidazolidine-2,4-dione]
Tauact mean [1, 3]: 31.5 ms

CC[C@H]1NC(=O)N(c2ccc(Oc3ccc(C)c4c3C3(CC3)CO4)nc2)C1=O [Example 6, (5R)-5-ethyl-3-[6-(7-methylspiro[2H-benzofuran-3,1′-cyclopropane]-4-yl)oxy-3-pyridyl]imidazolidine-2,4-dione]
Tauact mean [1, 4]: 34.8 ms

CC[C@H]1NC(=O)N(c2ccc(Oc3ccc(C)c4c3C(C)(C)CO4)nc2)C1=O [Example 7, (5R)-5-ethyl-3-{6-[(3,3,7-trimethyl-2,3-dihydro-1-benzofuran-4-yl)oxy]-3-pyridinyl}-2,4-imidazolidinedione]
Tauact mean [1, 4]: 28.0 ms

CC[C@H]1NC(=O)N(c2cnc(Oc3ccc(C)c4c3C(C)(C)CO4)nc2)C1=O [Example 8, (5R)-5-ethyl-3-{2-[(3,3,7-trimethyl-2,3-dihydro-1-benzofuran-4-yl)oxy]-5-pyrimidinyl}-2,4-imidazolidinedione]
Tauact mean [1, 2]: 25.0 ms

CC[C@@]1(C)NC(=O)N(c2ccc(Oc3ccc(C)c4c3C3(CC3)CO4)nc2)C1=O [Example 9, (5R)-5-ethyl-5-methyl-3-[6-(7-methylspiro[2H-benzofuran-3,1′-cyclopropane]-4-yl)oxy-3-pyridyl]imidazolidine-2,4-dione]
Tauact mean [1, 3]: 24.0 ms

Cc1ccc(Oc2ccc(N3C(=O)NC(C)(C)C3=O)cn2)c2c1OCC21CC1 [Example 10, 5,5-dimethyl-3-[6-(7-methylspiro[2H-benzofuran-3,1′-cyclopropane]-4-yl)oxy-3-pyridyl]imidazolidine-2,4-dione]
Tauact mean [1, 2]: 17.3 ms

CC[C@H]1NC(=O)N(c2ccc(Oc3ccc(C)c(OC)c3)nc2)C1=O [RE1, (5R)-5-ethyl-3-(6-{[4-methyl-3-(methyloxy)phenyl]oxy}-3-pyridinyl)-2,4-imidazolidinedione, reference compound]
Tauact mean ([1]; compound 6.25 μM (concentration giving ~0.3 nA current at end of pulse)): 9.9 ms

CC[C@@]1(C)NC(=O)N(c2ccc(Oc3ccc(C)c(OC)c3)nc2)C1=O [RE2, (5R)-5-ethyl-5-methyl-3-(6-{[4-methyl-3-(methyloxy)phenyl]oxy}-3-pyridinyl)-2,4-imidazolidinedione, reference compound]
Tauact mean ([1]; compound 12.5 μM (concentration giving ~0.3 nA current at end of pulse)): 7.3 ms

CC[C@H]1NC(=O)N(c2ccc(Oc3ccc(C#N)cc3C(C)(C)C)nc2)C1=O [RE3, 3-(1,1-dimethylethyl)-4-({5-[(4R)-4-ethyl-2,5-dioxo-1-imidazolidinyl]-2-pyridinyl}oxy)benzonitrile, reference compound]
Tauact mean ([1]; compound 0.2 μM (concentration giving ~0.3 nA current at end of pulse)): 23.0 ms

CC[C@H]1NC(=O)N(c2ccc(Oc3ccc(C#N)c(C(C)C)c3)nc2)C1=O [RE4, 4-({5-[(4R)-4-ethyl-2,5-dioxo-1-imidazolidinyl]-2-pyridinyl}oxy)-2-(1-methylethyl)benzonitrile, reference compound]
Tauact mean [1, 3]: 9.2 ms

CC[C@H]1NC(=O)N(c2ccc(Oc3ccc(C#N)cc3C3CC3)nc2)C1=O [RE5, 3-cyclopropyl-4-({5-[(4R)-4-ethyl-2,5-dioxo-1-imidazolidinyl]-2-pyridinyl}oxy)benzonitrile, reference compound]
Tauact mean [1, 5]: 13.0 ms

CC[C@H]1NC(=O)N(c2ccc(Oc3ccc(C#N)c(OC(F)(F)F)c3)nc2)C1=O [RE7, 4-({5-[(4R)-4-ethyl-2,5-dioxo-1-imidazolidinyl]-2-pyridinyl}oxy)-2-[(trifluoromethyl)oxy]benzonitrile, reference compound]
Tauact mean [1, 5]: 10.4 ms

CC[C@H]1NC(=O)N(c2ccc(Oc3ccc(C#N)c(OC(C)C)c3)nc2)C1=O [RE8, 4-({5-[(4R)-4-ethyl-2,5-dioxo-1-imidazolidinyl]-2-pyridinyl}oxy)-2-[(1-methylethyl)oxy]benzonitrile, reference compound]
Tauact mean [1, 5]: 9.7 ms
